The source of these data is patent US8338608B2, “Inhibitors of ion channels” (Icagen Inc., priority 2005, dated 2012).

For one assay, the target named is T1, hSCN3A (Homo sapiens, UniProt Q9NY46).
T1 construct: expressed in transfected cells
As to the kind of experiment: SCN3A inhibitory activity in HEK cells stably expressing hSCN3A (whole-cell patch clamp / radiotracer efflux HTS). In kind it is cell-based. The note with it: HEK cells stably transfected with hSCN3A; read-out: SCN3A Inhibitory Activity. A general note: In patch-clamp work, channel activity is measured electrically.

The next assay has as its target Nav1.3 (Homo sapiens, UniProt Q9NY46). The note with it: read-out: TTX IC-50; cited from earlier work.
Another assay deals with Nav1.8 (Homo sapiens, UniProt Q9Y5Y9). As to conditions: read-out: TTX IC-50; cited from earlier work.
In another assay the target is Nav1.1 (Homo sapiens, UniProt P35498). As to conditions: read-out: TTX IC-50; cited from earlier work.
The next assay concerns the target Nav1.2 (Homo sapiens, UniProt Q99250). The note with it: read-out: TTX IC-50; cited from earlier work.
A further assay concerns the target Nav1.9 (Homo sapiens, UniProt Q9UI33). The note with it: read-out: TTX IC-50; cited from earlier work.
For the next assay, the target named is Nav1.6 (Homo sapiens, UniProt Q9UQD0). As to conditions: read-out: TTX IC-50; cited from earlier work.
The conditions of assay [1]: 'as little as only'; cited from earlier work.

T1 sequence (Q9NY46 whole entry): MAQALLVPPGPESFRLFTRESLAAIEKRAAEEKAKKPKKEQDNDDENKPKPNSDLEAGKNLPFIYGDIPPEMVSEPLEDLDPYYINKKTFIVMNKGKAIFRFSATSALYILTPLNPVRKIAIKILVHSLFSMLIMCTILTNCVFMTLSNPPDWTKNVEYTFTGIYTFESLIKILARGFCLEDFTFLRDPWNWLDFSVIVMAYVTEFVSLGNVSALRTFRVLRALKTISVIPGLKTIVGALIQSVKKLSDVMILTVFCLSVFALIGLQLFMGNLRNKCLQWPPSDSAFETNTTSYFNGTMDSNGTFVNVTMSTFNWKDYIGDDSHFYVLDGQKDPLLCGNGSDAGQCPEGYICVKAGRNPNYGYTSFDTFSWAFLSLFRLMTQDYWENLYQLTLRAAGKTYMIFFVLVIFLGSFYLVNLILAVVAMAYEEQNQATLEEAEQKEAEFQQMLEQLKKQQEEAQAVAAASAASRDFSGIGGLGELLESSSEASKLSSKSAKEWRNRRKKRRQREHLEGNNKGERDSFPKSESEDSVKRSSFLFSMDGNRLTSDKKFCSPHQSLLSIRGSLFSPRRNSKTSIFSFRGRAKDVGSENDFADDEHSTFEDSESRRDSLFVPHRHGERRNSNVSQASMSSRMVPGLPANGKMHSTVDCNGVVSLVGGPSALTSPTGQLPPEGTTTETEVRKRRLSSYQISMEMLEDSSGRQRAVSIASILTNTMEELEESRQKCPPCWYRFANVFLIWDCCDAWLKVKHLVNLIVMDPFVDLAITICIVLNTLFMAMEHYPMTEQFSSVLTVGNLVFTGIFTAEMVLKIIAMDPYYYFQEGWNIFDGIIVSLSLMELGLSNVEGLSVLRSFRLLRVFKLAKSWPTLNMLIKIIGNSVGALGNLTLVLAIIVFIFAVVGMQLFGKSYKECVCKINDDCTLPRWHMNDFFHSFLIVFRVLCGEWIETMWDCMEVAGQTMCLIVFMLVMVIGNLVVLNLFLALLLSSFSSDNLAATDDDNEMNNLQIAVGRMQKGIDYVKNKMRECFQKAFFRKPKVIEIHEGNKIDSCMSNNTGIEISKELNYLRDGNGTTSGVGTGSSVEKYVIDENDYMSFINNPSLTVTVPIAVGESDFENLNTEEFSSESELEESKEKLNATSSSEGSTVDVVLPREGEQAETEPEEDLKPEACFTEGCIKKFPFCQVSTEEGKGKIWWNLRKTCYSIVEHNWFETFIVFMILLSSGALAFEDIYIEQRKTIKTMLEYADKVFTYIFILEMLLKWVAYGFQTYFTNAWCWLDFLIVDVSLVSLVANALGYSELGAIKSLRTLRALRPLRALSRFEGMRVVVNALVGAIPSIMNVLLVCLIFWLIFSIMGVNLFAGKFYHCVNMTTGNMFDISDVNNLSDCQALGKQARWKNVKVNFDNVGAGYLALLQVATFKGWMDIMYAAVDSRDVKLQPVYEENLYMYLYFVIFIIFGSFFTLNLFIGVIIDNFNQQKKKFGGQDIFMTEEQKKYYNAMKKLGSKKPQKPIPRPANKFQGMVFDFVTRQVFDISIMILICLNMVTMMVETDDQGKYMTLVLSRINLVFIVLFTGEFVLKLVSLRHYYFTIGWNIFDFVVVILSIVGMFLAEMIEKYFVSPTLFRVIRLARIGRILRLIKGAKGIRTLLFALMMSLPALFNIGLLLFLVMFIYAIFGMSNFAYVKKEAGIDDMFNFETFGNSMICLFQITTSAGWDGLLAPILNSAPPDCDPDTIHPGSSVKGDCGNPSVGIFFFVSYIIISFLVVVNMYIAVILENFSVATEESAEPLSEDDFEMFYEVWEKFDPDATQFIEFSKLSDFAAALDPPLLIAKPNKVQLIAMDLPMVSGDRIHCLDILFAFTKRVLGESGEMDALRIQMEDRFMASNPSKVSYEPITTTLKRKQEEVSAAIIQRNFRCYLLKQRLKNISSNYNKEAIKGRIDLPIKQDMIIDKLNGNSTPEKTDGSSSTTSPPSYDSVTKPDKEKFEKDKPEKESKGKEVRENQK
Sequence of Nav1.3 (Q9NY46 whole entry, looked up): as the sequence (Q9NY46 whole entry) above
Sequence of Nav1.8 (Q9Y5Y9 whole entry, looked up): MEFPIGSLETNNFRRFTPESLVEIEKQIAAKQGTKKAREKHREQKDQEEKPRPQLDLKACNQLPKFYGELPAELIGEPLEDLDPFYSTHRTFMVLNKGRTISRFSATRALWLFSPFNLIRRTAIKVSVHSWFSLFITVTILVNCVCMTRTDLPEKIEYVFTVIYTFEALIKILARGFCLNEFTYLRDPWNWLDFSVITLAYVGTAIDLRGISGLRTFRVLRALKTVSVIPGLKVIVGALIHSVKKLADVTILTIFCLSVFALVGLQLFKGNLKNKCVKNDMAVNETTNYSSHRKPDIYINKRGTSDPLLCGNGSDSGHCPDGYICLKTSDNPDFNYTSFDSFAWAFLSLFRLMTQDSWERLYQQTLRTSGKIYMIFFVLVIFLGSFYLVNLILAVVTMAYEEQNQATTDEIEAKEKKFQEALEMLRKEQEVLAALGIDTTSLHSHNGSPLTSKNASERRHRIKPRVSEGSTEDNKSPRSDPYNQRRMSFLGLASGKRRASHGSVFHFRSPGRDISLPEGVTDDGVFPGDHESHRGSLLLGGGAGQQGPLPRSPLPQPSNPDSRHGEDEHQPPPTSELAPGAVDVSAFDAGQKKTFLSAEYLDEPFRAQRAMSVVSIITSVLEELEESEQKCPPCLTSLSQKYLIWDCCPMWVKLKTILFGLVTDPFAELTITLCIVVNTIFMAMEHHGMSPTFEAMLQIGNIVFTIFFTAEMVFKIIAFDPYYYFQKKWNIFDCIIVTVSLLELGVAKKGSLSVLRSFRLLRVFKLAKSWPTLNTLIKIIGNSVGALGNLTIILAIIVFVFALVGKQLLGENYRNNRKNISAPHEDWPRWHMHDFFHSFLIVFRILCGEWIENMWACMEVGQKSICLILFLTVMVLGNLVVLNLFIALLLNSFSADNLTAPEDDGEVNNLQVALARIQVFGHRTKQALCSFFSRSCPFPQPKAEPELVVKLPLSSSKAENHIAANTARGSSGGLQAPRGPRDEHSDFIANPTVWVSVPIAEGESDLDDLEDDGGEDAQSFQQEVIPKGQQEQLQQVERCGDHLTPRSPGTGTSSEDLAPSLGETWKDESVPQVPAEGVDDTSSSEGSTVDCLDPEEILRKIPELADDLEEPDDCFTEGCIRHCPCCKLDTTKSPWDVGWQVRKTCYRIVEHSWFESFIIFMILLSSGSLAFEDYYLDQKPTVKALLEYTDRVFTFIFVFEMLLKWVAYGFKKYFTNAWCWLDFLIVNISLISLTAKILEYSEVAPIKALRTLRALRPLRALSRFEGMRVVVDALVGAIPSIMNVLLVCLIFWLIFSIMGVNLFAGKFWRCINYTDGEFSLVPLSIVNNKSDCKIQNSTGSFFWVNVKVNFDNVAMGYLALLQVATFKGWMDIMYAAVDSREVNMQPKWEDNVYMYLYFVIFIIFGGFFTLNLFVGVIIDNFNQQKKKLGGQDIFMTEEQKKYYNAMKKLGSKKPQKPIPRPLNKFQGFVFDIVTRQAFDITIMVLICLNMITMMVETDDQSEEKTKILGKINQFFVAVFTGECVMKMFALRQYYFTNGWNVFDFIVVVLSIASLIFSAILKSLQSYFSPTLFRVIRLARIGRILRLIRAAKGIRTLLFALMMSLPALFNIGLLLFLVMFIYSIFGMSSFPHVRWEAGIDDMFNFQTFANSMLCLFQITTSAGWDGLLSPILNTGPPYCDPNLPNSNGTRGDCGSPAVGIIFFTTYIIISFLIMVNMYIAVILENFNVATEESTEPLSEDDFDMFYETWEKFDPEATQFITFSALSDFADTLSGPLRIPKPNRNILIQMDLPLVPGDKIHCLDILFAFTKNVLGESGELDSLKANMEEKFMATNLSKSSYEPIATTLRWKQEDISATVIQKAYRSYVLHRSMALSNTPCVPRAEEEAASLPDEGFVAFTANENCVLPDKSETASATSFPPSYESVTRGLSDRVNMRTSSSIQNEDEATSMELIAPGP

`COc1ccc(CNS(=O)(=O)c2ccc(S(=O)(=O)Nc3nccs3)cc2)cc1Cl` [Compound 37, Benzene-1,4-disulfonic acid 1-(3-chloro-4-methoxy-benzylamide) 4-thiazol-2-ylamide]: the IC50 at hSCN3A is 100 to 500 nM.
On the same count and under the same terms, as for `CC(C)(C)c1ccc(OC2(CNS(=O)(=O)c3ccc(S(=O)(=O)Nc4nccs4)cc3)CCCC2)cc1` [Compound 38, Benzene-1,4-disulfonic acid 1-{[1-(4-tert-butyl-phenoxy)-cyclopentylmethyl]-amide} 4-thiazol-2-ylamide], the figure is 100 to 500 nM; as for `CC(C)(CNS(=O)(=O)c1ccc(S(=O)(=O)Nc2nccs2)cc1)c1ccc(Cl)cc1` [Compound 39, Benzene-1,4-disulfonic acid 1-{[2-(4-chloro-phenyl)-2-methyl-propyl]-amide} 4-thiazol-2-ylamide], 100 to 500 nM; as for `O=S(=O)(NCc1cc(F)cc(C(F)(F)F)c1)c1ccc(S(=O)(=O)Nc2nccs2)cc1` [Compound 40, Benzene-1,4-disulfonic acid 1-(3-fluoro-5-trifluoromethyl-benzylamide) 4-thiazol-2-ylamide], 100 to 500 nM.
Consider `O=S(=O)(NCCc1ccc(Cl)s1)c1ccc(S(=O)(=O)Nc2nccs2)cc1` [Compound 41, Benzene-1,4-disulfonic acid 1-{[2-(5-chloro-thiophen-2-yl)-ethyl]-amide} 4-thiazol-2-ylamide], for which the IC50 at hSCN3A fell in the range of 100 to 500 nM.
On to `CC(C)(C)CCNS(=O)(=O)c1ccc(S(=O)(=O)Nc2nccs2)c(F)c1` [Compound 42, 2-Fluoro-benzene-1,4-disulfonic acid 4-[(3,3-dimethyl-butyl)-amide] 1-thiazol-2-ylamide], for which, at hSCN3A, the IC50 was 100 to 500 nM.
On the same count and under the same terms, as for `O=S(=O)(NCCOc1ccccc1Cl)Nc1ccc(S(=O)(=O)Nc2nccs2)cc1` [Compound 43, N-[2-(2-chloro-phenoxyl)-ethyl]-N′-[4-(N-thiazol-2-yl-sulfonamyl)-phenyl]-sulfamide], the figure is 500 to 1000 nM; as for `O=S(=O)(NCCC1CCCCC1)c1ccc(S(=O)(=O)Nc2nccs2)cc1` [Compound 44, Benzene-1,4-disulfonic acid 1-[(2-cyclohexyl-ethyl)-amide] 4-thiazol-2-ylamide], 500 to 1000 nM.
In the case of `O=S(=O)(NCC(c1ccccc1)c1ccccc1)Nc1ccc(S(=O)(=O)Nc2nccs2)cn1` [Compound 45], the IC50 on hSCN3A is > 1000 nM.
On to `O=S(=O)(NCCC1CCOCC1)Nc1ccc(S(=O)(=O)Nc2nccs2)cc1` [Compound 46, N-[2-(4-tetrahydro-pyranyl]-ethyl]-N′-[4-(N-thiazol-2-yl-sulfonamyl)-phenyl]-sulfamide], for which, on hSCN3A, the IC50 was > 1000 nM.
As to `CN(CCc1ccccc1)S(=O)(=O)c1ccc(S(=O)(=O)Nc2nccs2)cc1` [Compound 47, Benzene-1,4-disulfonic acid 1-(methyl-phenethyl-amide) 4-thiazol-2-ylamide], the IC50 at hSCN3A was > 1000 nM.
For `NC1=N[C@H](O)[C@H]2[C@H]3O[C@]4(O)O[C@@H]([C@@H](O)[C@@]2(N1)[C@@H]4O)[C@]3(O)CO` [TTX, tetrodotoxin], the IC50 was 15 nM on Nav1.3; 50000 nM on Nav1.8; 10 nM on Nav1.1; 10 nM on Nav1.2; 1000 nM at Nav1.9; 6 nM on Nav1.6.
Turning to `NCC1(CC(=O)O)CCCCC1` [gabapentin], in assay [1], the “patients respond to gabapentin treatment for neuropathic pain” value was 30%.
